Measurements from patent US7375246B2, “Sulfhydral containing compounds and methods of using the same” (Regenesis Bioremediation Products Inc., priority 2003, dated 2008).

Tests used:
[1] = Example E: Aquifer Simulation Vessel (ASV), chromated copper arsenate, chromium; conditions: for Chromium concentration in aqueous phase / Cr concentration: initial 15
Experimental: (§1) A tube 6 foot long and 6 inches in diameter was packed with soil. These tubes simulate the flow in an aquifer below ground and are referred to as Aquifer Simulation Vessels (ASV). The ASV has sample ports along the bottom at every 6-inch interval to allow sampling as water flows through the tube. Contaminated water is allowed to flow through the tube. As the water flows through the tube, the water within the space pockets of the soil is tested and when the soil with the tube is fully contaminated the flow was stopped. The soil pockets (pores) were full of contaminants from the water. At that point either ferrous cysteinate or sorbitol hexacysteinate was injected just ahead of the first port with no flow in the system.
(§2) A separate tube was used for each of the two materials tested.
(§3) Initially the soil pockets (pores) were filled with this solution as described. Either ferrous cysteinate or sorbitol hexacysteinate was injected into the soil containing tube. The concentration of contaminants at each sample port was measured over a 30 day period. The system was then flushed with fresh water to determine if the removed metals are “redistributed” or “redissolved” in the water (i.e. so called “rebound”). This measure determined the ability of the compounds to permanently remove the contaminants.

[2] = Example D: two-flask liquid/soil system with chromated copper arsenate, arsenic
Experimental: (§4) A system which had two connected 250 ml flasks, one with liquid and soil and the other with a reservoir of liquid, was used. The liquid flowed between the 2 flasks. Samples were taken from the flask without the soil to determine the amount of Cu, As and Cr present in the aqueous phase. The liquid in the flask without soil was sampled periodically and the Cu, Cr and As content measured by Atomic Absorption Spectroscopy. A unimolar ratio of copper chromate and copper arsenate was used as being representative of chromated copper arsenate. The level of contamination was selected so that the As component was about 30 mg/L. After the system was set up the As component was determined to be 28.3 mg/L. The Cu and Cr were approximately 25 mg/L and 15.5 mg/L, respectively.
(§5) Ferrous cysteinate and sorbitol tricysteinate were both used in this system.

[3] = Example E: Aquifer Simulation Vessel (ASV), chromated copper arsenate, arsenic; conditions: for Arsenic concentration in aqueous phase: initial 25.7
Experimental: as §1, §2, §3

[4] = Example E: Aquifer Simulation Vessel (ASV), chromated copper arsenate, copper; conditions: for Copper concentration in aqueous phase: initial 4.2
Experimental: as §1, §2, §3

[5] = Example C: reduction of As in arsenate solution in a flask, atomic absorption
Experimental: 10.02 grams of ferrous cysteinate synthesized as in 1.4 were added to a 250 ml. flask which contained 150 ml of 32 ppm of As initially added as arsenic trioxide. The 32-ppm solution of As was prepared by using 0.08 grams of arsenic trioxide to which 3.0 grams of concentrated hydrochloric acid was added. This prepared the soluble arsenate. The solution was heated and diluted to one liter with distilled water. The As concentration was measured over time using atomic absorption.

[6] = Example D: two-flask liquid/soil system with chromated copper arsenate, copper
Experimental: as §4, §5

[7] = Example D: two-flask liquid/soil system with chromated copper arsenate, chromium
Experimental: as §4, §5

## ferrous cysteinate [FeC]
[1]
  remediation of Cr in ASV: effective remediation
[1]; Port 1, Day 8
  Chromium concentration in aqueous phase: 5.8 mg/L
[1]; Port 1, Day 13
  Chromium concentration in aqueous phase: 3.4 mg/L
[1]; Port 1, Day 16
  Chromium concentration in aqueous phase: 1.4 mg/L
[1]; Port 1, Day 20
  Chromium concentration in aqueous phase: 0.7 mg/L
[1]; Port 1, Day 22
  Chromium concentration in aqueous phase: 1.1 mg/L
[1]; Port 1, Day 27
  Chromium concentration in aqueous phase: 1.0 mg/L
[1]; Port 5, Day 8
  Chromium concentration in aqueous phase: 4.8 mg/L
[1]; Port 5, Day 13
  Chromium concentration in aqueous phase: 1.3 mg/L
[1]; Port 5, Day 16
  Chromium concentration in aqueous phase: 0.9 mg/L
[1]; Port 5, Day 20
  Chromium concentration in aqueous phase: 0.6 mg/L
[1]; Port 5, Day 22
  Chromium concentration in aqueous phase: 1.0 mg/L
[1]; Port 5, Day 27
  Chromium concentration in aqueous phase: 0.9 mg/L
[1]; Port 10, Day 8
  Chromium concentration in aqueous phase: 5.2 mg/L
[1]; Port 10, Day 13
  Chromium concentration in aqueous phase: 0.8 mg/L
[1]; Port 10, Day 16
  Chromium concentration in aqueous phase: 0.6 mg/L
[1]; Port 10, Day 20
  Chromium concentration in aqueous phase: 0.5 mg/L
[1]; Port 10, Day 22
  Chromium concentration in aqueous phase: 0.9 mg/L
[1]; Port 10, Day 27
  Chromium concentration in aqueous phase: 0.7 mg/L
[1]; port 1, day 30
  Cr concentration: 0.7 mg/L
[1]; port 5, day 30
  Cr concentration: 0.4 mg/L
[1]; port 10, day 30
  Cr concentration: 0.4 mg/L
[2]
  remediation of arsenic in combined solution: remediated
[3]
  remediation of As in ASV: effective remediation
[3]; Port 1, Day 5
  Arsenic concentration in aqueous phase: 25.8 mg/L
[3]; Port 1, Day 8
  Arsenic concentration in aqueous phase: 10.9 mg/L
[3]; Port 1, Day 13
  Arsenic concentration in aqueous phase: 6.8 mg/L
[3]; Port 1, Day 16
  Arsenic concentration in aqueous phase: 3.6 mg/L
[3]; Port 1, Day 20
  Arsenic concentration in aqueous phase: 3.3 mg/L
[3]; Port 1, Day 22
  Arsenic concentration in aqueous phase: 1.1 mg/L
[3]; Port 1, Day 27
  Arsenic concentration in aqueous phase: 0.6 mg/L
[3]; Port 5, Day 5
  Arsenic concentration in aqueous phase: 23.1 mg/L
[3]; Port 5, Day 8
  Arsenic concentration in aqueous phase: 9.8 mg/L
[3]; Port 5, Day 13
  Arsenic concentration in aqueous phase: 6.8 mg/L
[3]; Port 5, Day 16
  Arsenic concentration in aqueous phase: 3.5 mg/L
[3]; Port 5, Day 20
  Arsenic concentration in aqueous phase: 3.0 mg/L
[3]; Port 5, Day 22
  Arsenic concentration in aqueous phase: 0.9 mg/L
[3]; Port 5, Day 27
  Arsenic concentration in aqueous phase: 0.5 mg/L
[3]; Port 10, Day 5
  Arsenic concentration in aqueous phase: 23.9 mg/L
[3]; Port 10, Day 8
  Arsenic concentration in aqueous phase: 7.7 mg/L
[3]; Port 10, Day 13
  Arsenic concentration in aqueous phase: 5.4 mg/L
[3]; Port 10, Day 16
  Arsenic concentration in aqueous phase: 2.8 mg/L
[3]; Port 10, Day 20
  Arsenic concentration in aqueous phase: 2.9 mg/L
[3]; Port 10, Day 22
  Arsenic concentration in aqueous phase: 0.8 mg/L
[3]; Port 10, Day 27
  Arsenic concentration in aqueous phase: 0.5 mg/L
[4]
  remediation of Cu in ASV: effective remediation
[4]; Port 1, Day 5
  Copper concentration in aqueous phase: 0.3 mg/L
[4]; Port 1, Day 8
  Copper concentration in aqueous phase: 0.2 mg/L
[4]; Port 1, Day 13
  Copper concentration in aqueous phase: 0.1 mg/L
[4]; Port 1, Day 16
  Copper concentration in aqueous phase: 0.1 mg/L
[4]; Port 1, Day 20
  Copper concentration in aqueous phase: 0.0 mg/L
[4]; Port 1, Day 22
  Copper concentration in aqueous phase: 0.1 mg/L
[4]; Port 1, Day 27
  Copper concentration in aqueous phase: 0.0 mg/L
[4]; Port 5, Day 5
  Copper concentration in aqueous phase: 0.3 mg/L
[4]; Port 5, Day 8
  Copper concentration in aqueous phase: 0.2 mg/L
[4]; Port 5, Day 13
  Copper concentration in aqueous phase: 0.1 mg/L
[4]; Port 5, Day 16
  Copper concentration in aqueous phase: 0.0 mg/L
[4]; Port 5, Day 20
  Copper concentration in aqueous phase: 0.0 mg/L
[4]; Port 5, Day 22
  Copper concentration in aqueous phase: 0.0 mg/L
[4]; Port 5, Day 27
  Copper concentration in aqueous phase: 0.0 mg/L
[4]; Port 10, Day 5
  Copper concentration in aqueous phase: 0.1 mg/L
[4]; Port 10, Day 8
  Copper concentration in aqueous phase: 0.1 mg/L
[4]; Port 10, Day 13
  Copper concentration in aqueous phase: 0.0 mg/L
[4]; Port 10, Day 16
  Copper concentration in aqueous phase: 0.0 mg/L
[4]; Port 10, Day 20
  Copper concentration in aqueous phase: 0.0 mg/L
[4]; Port 10, Day 22
  Copper concentration in aqueous phase: 0.0 mg/L
[4]; Port 10, Day 27
  Copper concentration in aqueous phase: 0.0 mg/L
[5]; 10.02 grams in 150 ml of 32 ppm As
  time in which the concentration of As was reduced by half: less than 45 hours
[5]; from 32 ppm, in less than 45 hours
  concentration of As after treatment: less than 15 ppm
[6]
  remediation of copper in combined solution: remediated
[7]
  remediation of chromium in combined solution: remediated

## sorbitol tricysteinate
[2]
  remediation of arsenic in combined solution: remediated
[6]
  remediation of copper in combined solution: remediated
[7]
  remediation of chromium in combined solution: remediated
